Where two headings read alike, the source gives them in different places.
Target: human NAMPT (Homo sapiens, UniProt P43490)
Assay: Human recombinant enzyme assay (NMN fluorescence biochemical assay, activation of NAMPT)
Experimental: Compounds described herein were assayed for their ability to stimulate the synthesis of nicotinamide mononucleotide (NMN) by the enzyme NAMPT. The human recombinant enzyme assay measures the activation of the enzyme activity by compounds using recombinant enzyme and substrates in a buffered cell-free system. The assay conditions closely mimic cellular environments. Dose responses were measured using an assay to detect the formation of nicotinamide mono-nucleotide. All experiments were performed in the 384-well format. […] Enzyme reactions were initiated with the addition of 10 μL of a solution containing the substrates. The final assay conditions were as follows: 6 nM human NAMPT, 2.5 mM ATP, 20 μM PRPP and 150 μM nicotinamide in 50 mM HEPES, pH 7.2, 1 mM DTT, 1 mM CHAPS 50 mM NaCl, 100 mM MgCl2. Following an incubation of 60 min at ambient temperature, 10 μL of 20% acetophenone in DMSO was added, followed by 10 μL of 2 M KOH and 40 μL of formic acid. The plates were read for fluorescence (Excitation/Emission=355 nm/460 nm) using an EnVision plate reader after 40 mins of incubation at ambient temperature.

[1] = Table A, human recombinant NAMPT, NMN formation, 60 min
[2] = Table A, human recombinant NAMPT, NMN formation, 60 min, read-out: EC50 Human

Chain of human NAMPT (P43490 whole entry): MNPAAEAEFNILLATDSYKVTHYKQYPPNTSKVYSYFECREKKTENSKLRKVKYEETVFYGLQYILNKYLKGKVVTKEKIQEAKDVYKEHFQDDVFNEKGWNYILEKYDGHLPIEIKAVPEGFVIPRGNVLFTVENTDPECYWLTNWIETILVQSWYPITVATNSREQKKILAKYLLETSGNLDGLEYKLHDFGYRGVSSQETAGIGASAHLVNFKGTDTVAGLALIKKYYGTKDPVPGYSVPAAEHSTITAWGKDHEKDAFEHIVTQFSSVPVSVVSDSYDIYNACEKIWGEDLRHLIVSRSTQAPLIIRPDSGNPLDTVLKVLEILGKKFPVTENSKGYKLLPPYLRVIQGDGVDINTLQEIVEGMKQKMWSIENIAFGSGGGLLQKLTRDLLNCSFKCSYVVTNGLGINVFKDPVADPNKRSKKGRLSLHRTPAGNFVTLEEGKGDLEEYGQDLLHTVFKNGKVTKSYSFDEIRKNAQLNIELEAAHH

| Compound | AC1.4 Human [1] [µM] | EC50 [2] [µM] | EC50 [µM] |
| --- | --- | --- | --- |
| COc1ccc(CNC(=O)NC2CC3(C2)CC(C(=O)NCc2cccnc2)C3)cc1 (centres unmarked) [Compound 49, 6-(3-(4-methoxybenzyl)ureido)-N-(pyridin-3-ylmethyl)spiro[3.3]heptane-2-carboxamide] | 6.6 | 46.8 | – |
| COc1ccc(CNC(=O)NC2CC3(C2)CC(C(=O)NCc2ccncc2)C3)cc1 (centres unmarked) [Compound 50, 6-(3-(4-methoxybenzyl)ureido)-N-(pyridin-4-ylmethyl)spiro[3.3]heptane-2-carboxamide] | 17.9 | 32.8 | – |
| COc1ccc(CNC(=O)NC2CC3(C2)CC(C(=O)N(C)Cc2ccccc2)C3)cc1 (centres unmarked) [Compound 51, N-benzyl-6-(3-(4-methoxybenzyl)ureido)-N-methylspiro[3.3]heptane-2-carboxamide] | 1.5 | 53.1 | – |
| COc1ccc(CNC(=O)NC2CC3(CC(CN4CCCC4c4ccccc4)C3)C2)cc1 (centres unmarked) [Compound 52, 1-(4-methoxybenzyl)-3-(6-((2-phenylpyrrolidin-1-yl)methyl)spiro[3.3]heptan-2-yl)urea] | 4.2 | 43.8 | – |
| COc1ccc(CNC(=O)NC2CC3(C2)CC(C(=O)N(C)[C@H](C)c2ccccc2F)C3)cc1 (stereo partly drawn) [Compound 53, (R)-N-(1-(2-fluorophenyl)ethyl)-6-(3-(4-methoxybenzyl)ureido)-N-methylspiro[3.3]heptane-2-carboxamide] | 0.3 | 8.5 | – |
| COc1ccc(CNC(=O)NC2CC3(C2)CC(C(=O)NCC(C)(C)c2ccccc2C)C3)cc1 (centres unmarked) [Compound 54, 6-(3-(4-methoxybenzyl)ureido)-N-(2-methyl-2-(o-tolyl)propyl)spiro[3.3]heptane-2-carboxamide] | 1.4 | 29.4 | – |
| COc1ccc(CNC(=O)NC2CC3(C2)CC(C(=O)NCC(C)(C)c2ccccc2F)C3)cc1 (centres unmarked) [Compound 55, N-(2-(2-fluorophenyl)-2-methylpropyl)-6-(3-(4-methoxybenzyl)ureido)spiro[3.3]heptane-2-carboxamide] | 1.1 | 40.6 | – |
| COc1ccc(CNC(=O)NC2CC3(C2)CC(C(=O)NCc2ccccn2)C3)cc1 (centres unmarked) [Compound 56, 6-(3-(4-methoxybenzyl)ureido)-N-(pyridin-2-ylmethyl)spiro[3.3]heptane-2-carboxamide] | 9.0 | 47.7 | – |
| COc1ccc(CNC(=O)NC2CC3(C2)CC(C(=O)N2CCC(c4ccccc4)C2)C3)cc1 (centres unmarked) [Compound 57, 1-(4-methoxybenzyl)-3-(6-(3-phenylpyrrolidine-1-carbonyl)spiro[3.3]heptan-2-yl)urea] | 1.0 | 25.8 | – |
| COc1ccc(CNC(=O)NC2CC3(C2)CC(C(=O)N2CCCC2c2ccncc2)C3)cc1 (centres unmarked) [Compound 58, 1-(4-methoxybenzyl)-3-(6-(2-(pyridin-4-yl)pyrrolidine-1-carbonyl)spiro[3.3]heptan-2-yl)urea] | 11.3 | 39.6 | – |
| COc1ccc(CNC(=O)NC2CC3(C2)CC(C(=O)N2CCC[C@@H]2c2cccnc2)C3)cc1 (stereo partly drawn) [Compound 59, (R)-1-(4-methoxybenzyl)-3-(6-(2-(pyridin-3-yl)pyrrolidine-1-carbonyl)spiro[3.3]heptan-2-yl)urea] | 11.2 | 40.5 | – |
| COc1ccc(CNC(=O)NC2CC3(C2)CC(C(=O)N(C)[C@@H](C)c2ccccc2F)C3)cc1 (stereo partly drawn) [Compound 60, (S)-N-(1-(2-fluorophenyl)ethyl)-6-(3-(4-methoxybenzyl)ureido)-N-methylspiro[3.3]heptane-2-carboxamide] | 0.3 | 6.1 | – |
| COc1ccc(CNC(=O)NC2CC3(C2)CC(C(=O)N2CC(c4ccccc4)C2)C3)cc1 (centres unmarked) [Compound 61, 1-(4-methoxybenzyl)-3-(6-(3-phenylazetidine-1-carbonyl)spiro[3.3]heptan-2-yl)urea] | 2.5 | 34.9 | – |
| COc1ccc(CNC(=O)NC2CC3(C2)CC(C(=O)N2CCN(C(=O)c4ccccc4)CC2)C3)cc1 (centres unmarked) [Compound 62, 1-(6-(4-benzoylpiperazine-1-carbonyl)spiro[3.3]heptan-2-yl)-3-(4-methoxybenzyl)urea] | 1.2 | 23.6 | – |
| COc1ccc(CNC(=O)NC2CC3(C2)CC(C(=O)N[C@H]2C[C@H](c4ccccc4)C2)C3)cc1 (some centres unmarked) [Compound 63, 6-(3-(4-methoxybenzyl)ureido)-N-((1r,3r)-3-phenylcyclobutyl)spiro[3.3]heptane-2-carboxamide] | 4.4 | 4.4 | – |
| COc1ccc(CNC(=O)NC2CC3(C2)CC(C(=O)NCC(C)(C)c2ccccc2OC)C3)cc1 (centres unmarked) [Compound 64, 6-(3-(4-methoxybenzyl)ureido)-N-(2-(2-methoxyphenyl)-2-methylpropyl)spiro[3.3]heptane-2-carboxamide] | 1.4 | 50.1 | – |

| Compound | AC1.4 Human [1] [µM] | EC50 [2] [µM] | EC50 [µM] |
| --- | --- | --- | --- |
| COc1ccc(CNC(=O)NC2CC3(C2)CC(C(=O)NCC(C)(C)c2ccccn2)C3)cc1 (centres unmarked) [Compound 65, 6-(3-(4-methoxybenzyl)ureido)-N-(2-methyl-2-(pyridin-2-yl)propyl)spiro[3.3]heptane-2-carboxamide] | 2.6 | 50 | – |
| COc1ccc(CNC(=O)NC2CC3(C2)CC(C(=O)NCC(C)(C)c2cccnc2)C3)cc1 (centres unmarked) [Compound 66, 6-(3-(4-methoxybenzyl)ureido)-N-(2-methyl-2-(pyridin-3-yl)propyl)spiro[3.3]heptane-2-carboxamide] | 3.3 | 37.8 | – |
| COc1ccc(CNC(=O)NC2CC3(CC(CC(=O)N(C)Cc4ccccc4)C3)C2)cc1 (centres unmarked) [Compound 67, N-benzyl-2-(6-(3-(4-methoxybenzyl)ureido)spiro[3.3]heptan-2-yl)-N-methylacetamide] | 2.3 | – | 35.9 |
| COc1ccc(CNC(=O)NC2CC3(C2)CC(C(=O)NCc2ccccc2)C3)cc1 (centres unmarked) [Compound 68, N-benzyl-6-(3-(4-methoxybenzyl)ureido)spiro[3.3]heptane-2-carboxamide] | 5.1 | 45.2 | – |
| COc1ccc(CNC(=O)NC2CC3(C2)CC(C(=O)NCCc2ccccc2)C3)cc1 (centres unmarked) [Compound 69, 6-(3-(4-methoxybenzyl)ureido)-N-phenethylspiro[3.3]heptane-2-carboxamide] | 4.7 | – | 38.4 |
| COc1ccc(CNC(=O)NC2CC3(C2)CC(C(=O)NC(C)(C)c2ccccc2)C3)cc1 (centres unmarked) [Compound 70, 6-(3-(4-methoxybenzyl)ureido)-N-(2-phenylpropan-2-yl)spiro[3.3]heptane-2-carboxamide] | 3.9 | – | 38.6 |
| COc1ccc(CNC(=O)NC2CC3(C2)CC(C(=O)NCCc2cn[nH]c2)C3)cc1 (centres unmarked) [Compound 75, N-(2-(1H-pyrazol-4-yl)ethyl)-6-(3-(4-methoxybenzyl)ureido)spiro[3.3]heptane-2-carboxamide] | 11.5 | 42 | – |
| COc1ccc(CNC(=O)NC2CC3(C2)CC(C(=O)NCc2ccc(C#N)cc2F)C3)cc1 (centres unmarked) [Compound 77, N-(4-cyano-2-fluorobenzyl)-6-(3-(4-methoxybenzyl)ureido)spiro[3.3]heptane-2-carboxamide] | 7.2 | 35.1 | – |
| COc1ccc(CNC(=O)NC2CC3(C2)CC(C(=O)NC2CC(c4ccncc4)C2)C3)cc1 (centres unmarked) [Compound 78, 6-(3-(4-methoxybenzyl)ureido)-N-(3-(pyridin-4-yl)cyclobutyl)spiro[3.3]heptane-2-carboxamide] | 4.4 | 45.2 | – |
| COc1ccc(CNC(=O)NC2CC3(C2)CC(C(=O)NCC(C)(C)c2ccncc2)C3)cc1 (centres unmarked) [Compound 80, 6-(3-(4-methoxybenzyl)ureido)-N-(2-methyl-2-(pyridin-4-yl)propyl)spiro[3.3]heptane-2-carboxamide] | 2.4 | 45.4 | – |
| COc1ccc(CNC(=O)N[C@H]2C[C@]3(CCN(C(=O)OC(C)(C)C)C3)C2)cc1 [Compound 81, tert-butyl (2r,4s)-2-(3-(4-methoxybenzyl)ureido)-6-azaspiro[3.4]octane-6-carboxylate] | 12.5 | 37.2 | – |
| COc1ccc(CNC(=O)N[C@H]2C[C@@]3(CCN(C(=O)OC(C)(C)C)C3)C2)cc1 [Compound 82, tert-butyl (2s,4r)-2-(3-(4-methoxybenzyl)ureido)-6-azaspiro[3.4]octane-6-carboxylate] | 10.7 | 52.3 | – |
| COc1ccc(CNC(=O)NC2CC3(C2)CC(C(=O)Nc2ccccc2)C3)cc1 (centres unmarked) [Compound 86, 6-(3-(4-methoxybenzyl)ureido)-N-phenylspiro[3.3]heptane-2-carboxamide] | 4.7 | 49.4 | – |
| COc1ccc(CNC(=O)NC2CC3(C2)CC(C(=O)NCc2ccnc(OC(F)F)c2)C3)cc1 (centres unmarked) [Compound 88, N-((2-(difluoromethoxy)pyridin-4-yl)methyl)-6-(3-(4-methoxybenzyl)ureido)spiro[3.3]heptane-2-carboxamide] | 16.3 | 48.8 | – |
| COc1ccc(CNC(=O)NC2CC3(C2)CC(C(=O)Nc2ccc4nncn4c2)C3)cc1 (centres unmarked) [Compound 89, N-([1,2,4]triazolo[4,3-a]pyridin-6-yl)-6-(3-(4-methoxybenzyl)ureido)spiro[3.3]heptane-2-carboxamide] | 10.3 | 33.7 | – |
